Data from ChEMBL document CHEMBL5104134, “Targeting the interaction of β-catenin and TCF/LEF transcription factors to inhibit oncogenic Wnt signaling” (Bioorg Med Chem, 2022).
Values belong to the molecule of their own block, whether it stands above or below them. Starred links: 1 amine or outer side, 2 acyl side, 3 side chain; linkers in the order of their positions; H or OH if unused. Positions of bridges follow the written chain, without caps; N, C: chain ends. Non-standard residues stand in square brackets, D forms with d. Residues, ends and D or L forms follow the SMILES beside them. X1 = C(=C\[*:2])/CC[*:1]; βAla = NCCC(=O)O

How the values were obtained:
[1] = molecular target: T1, TCF4-CTNNB1 complex (Homo sapiens, UniProt P35222); assay: Inhibition of His-tagged beta-catenin (134 to 668 residues)/CM-5 sensor chip immobilized N-terminal GST-tagged TCF4 interaction (unknown origin) preincubated with beta-catenin for 15 mins followed by TCF4 addition measured after 60 secs by SPR analysis; type: protein-complex assay
T1 sequence (P35222 whole entry): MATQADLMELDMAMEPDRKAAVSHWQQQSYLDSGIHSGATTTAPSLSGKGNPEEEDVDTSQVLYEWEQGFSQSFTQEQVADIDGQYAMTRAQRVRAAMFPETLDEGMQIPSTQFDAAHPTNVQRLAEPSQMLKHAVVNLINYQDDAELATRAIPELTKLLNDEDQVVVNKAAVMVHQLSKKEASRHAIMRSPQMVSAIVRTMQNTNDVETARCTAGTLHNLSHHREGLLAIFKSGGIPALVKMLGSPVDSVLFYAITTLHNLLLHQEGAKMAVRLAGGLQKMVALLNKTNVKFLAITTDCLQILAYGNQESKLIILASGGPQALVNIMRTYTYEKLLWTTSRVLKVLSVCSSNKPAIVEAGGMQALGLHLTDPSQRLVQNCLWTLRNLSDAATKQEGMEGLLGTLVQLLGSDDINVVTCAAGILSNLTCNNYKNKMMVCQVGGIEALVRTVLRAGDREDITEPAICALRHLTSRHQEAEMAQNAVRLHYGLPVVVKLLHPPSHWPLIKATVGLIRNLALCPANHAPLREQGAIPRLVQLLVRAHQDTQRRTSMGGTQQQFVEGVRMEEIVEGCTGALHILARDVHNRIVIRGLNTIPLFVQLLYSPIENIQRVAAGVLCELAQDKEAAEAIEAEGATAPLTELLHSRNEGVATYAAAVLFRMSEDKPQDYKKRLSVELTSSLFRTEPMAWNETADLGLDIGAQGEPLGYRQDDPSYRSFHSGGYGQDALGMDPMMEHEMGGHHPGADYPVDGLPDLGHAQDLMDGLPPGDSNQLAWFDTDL
T1 sequence (P15884 whole entry): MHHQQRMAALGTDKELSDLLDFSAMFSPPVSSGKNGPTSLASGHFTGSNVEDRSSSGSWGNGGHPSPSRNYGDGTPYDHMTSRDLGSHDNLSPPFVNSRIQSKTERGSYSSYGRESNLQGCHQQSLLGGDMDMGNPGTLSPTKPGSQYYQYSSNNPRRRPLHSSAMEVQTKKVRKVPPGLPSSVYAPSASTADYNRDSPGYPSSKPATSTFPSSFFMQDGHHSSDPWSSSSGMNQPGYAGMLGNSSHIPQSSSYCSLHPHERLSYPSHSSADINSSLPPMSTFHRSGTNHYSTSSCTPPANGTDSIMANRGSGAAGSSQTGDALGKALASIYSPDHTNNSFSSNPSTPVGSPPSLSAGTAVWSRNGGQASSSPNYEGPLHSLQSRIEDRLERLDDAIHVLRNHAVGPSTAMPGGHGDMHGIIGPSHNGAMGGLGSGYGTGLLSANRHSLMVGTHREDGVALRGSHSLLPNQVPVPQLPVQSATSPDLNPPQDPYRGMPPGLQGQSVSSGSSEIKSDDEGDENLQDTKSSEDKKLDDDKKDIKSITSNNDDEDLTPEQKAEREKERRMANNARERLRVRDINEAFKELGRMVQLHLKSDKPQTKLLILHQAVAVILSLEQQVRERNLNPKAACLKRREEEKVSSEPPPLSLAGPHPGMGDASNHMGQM

[2] = Antiproliferative activity against human LNCaP-abl cells assessed as inhibition of cell proliferation incubated for 5 days by Cell Titer-Fluor assay; type: functional, cell-based; conditions: 120 h
[3] = Antiproliferative activity against human LNCaP-95 cells assessed as inhibition of cell proliferation incubated for 5 days by Cell Titer-Fluor assay; type: functional, cell-based; conditions: LNCaP-95, 120 h
[4] = Inhibition of Wnt reporter activity in human HeLa cells by cell based assay
[5] = Inhibition of Wnt reporter activity in human SW480 cells by cell based assay; type: functional

IC50 [1]: 24 µM
SMILES: CCc1ccc(OCc2nnc(SC3CCCC3=O)n2C(C)c2ccccc2)cc1 (stereo not given)

SMILES: COc1cc(OC)cc(N2CC(=O)N(CCCOC(C)C)CC(=O)N(C(C)c3ccc(O)cc3)CC(=O)N(C(C)c3ccc(O)cc3)CC(=O)N[C@H](C)C(=O)N(CCc3ccccc3Oc3ccccc3)CC2=O)c1 (stereo not given in full)
IC50 [2]: 0.2 µM | IC50 [3]: 0.8 µM

IC50 [4]: 8 µM
SMILES: CC(C)C[C@@H]1NC(=O)[C@H](CC(C)C)NC(=O)[C@H](CO)NC(=O)[C@H](CC(=O)O)NC(=O)[C@@H]2CCCN2C(=O)[C@@H]2CCCN2C(=O)[C@H](C(C)C)NC(=O)[C@H](CC(=O)O)NC(=O)[C@H](CC(N)=O)NC(=O)[C@H](CCCNC(=N)N)NC(=O)[C@@H]2CS/C=C/CCSC[C@H](NC1=O)C(=O)N[C@@H](Cc1ccccc1)C(=O)NCCC(=O)NCCC(=O)N[C@@H](C(C)C)C(=O)N2 (cyclo(CF[βAla][βAla]VCRNDVPPDSLL); linker 1-6 via X1)

IC50 [5]: 29 µM
SMILES: CCOC(=O)C[C@@H](NC(=O)[C@@H](Cc1ccc2ccccc2c1)NC(=O)Cc1cc2cc(Cl)ccc2[nH]1)C(=O)N[C@H](CC(=O)OCC)C(=O)OC
